Measurements from BigSolDB 2.1.

N[C@H](Cc1c[nH]c2ccccc12)C(=O)O
solubility (mole fraction)
Details	283.15 K	288.15 K	293.15 K	298.15 K	303.15 K	308.15 K	313.15 K	318.15 K	323.15 K	328.15 K
in DMSO	–	–	0.00359	0.00381	0.00464	0.00551	0.00596	0.00705	0.00778	0.00911
in acetonitrile	5.75e-05	6.84e-05	8.14e-05	0.000107	0.000128	0.00015	0.000206	0.000241	0.000307	0.000372
in ethyl acetate	0.000238	0.000302	0.000376	0.000476	0.000541	0.000699	0.000837	0.00115	0.00141	0.0018
in ethylene glycol	0.00148	0.00167	0.00246	0.00318	0.00437	0.00547	0.00804	0.00999	0.0125	0.0161
in n-butanol	1.97e-05	2.21e-05	2.99e-05	3.52e-05	4.81e-05	5.68e-05	7.9e-05	9.26e-05	0.00012	0.000137
in n-octanol	1.36e-05	1.53e-05	1.88e-05	2.49e-05	2.8e-05	3.61e-05	4.02e-05	4.83e-05	5.87e-05	6.53e-05
in n-propanol	4.51e-05	6.23e-05	7.27e-05	8.69e-05	0.000111	0.000127	0.000157	0.000177	0.000219	0.000244
